Like-named read-outs stand apart in the source and are kept apart here.
How the values were obtained:
[1] = system: HBV; conditions: to the end of the second year of a two year study; cited from earlier work
[2] = system: WT HBV produced by the 2.2.15 cells; test: PMEA inhibition of HBV DNA production in 2.2.15 stable HBV-producer cells; type: cell-based; conditions: Hepatitis B virus, 168 h, HBV DNA in media on day 7, read-out: IC50 PMEA (95%Cl)
Method: (§1) The human hepatobtastoma cell line (Hep-G2-2.2.15) which constitutively produces infectious HBV was seeded into 96 well microtiter plates at a density of 5 x 10^3 cells per well. These cells were treated with a combination of lamivudine and PMEA on triplicate plates. Culture media containing drugs was replenished every other day for 9 days, at which time supernatants were collected and analyzed for HBV content. The lamivudine/PMEA combination was tested twice in triplicate in matrix fashion. […] Data were normalised to values obtained with non-drug treated cells, and expressed as a percent of control for analysis. […] Briefly, HBV detection was performed by "capturing" virus from supernatants on Anti-HBsAg coated plates, washing, denaturing to release HBV DNA, performing PCR with biotinylated primers, streptavidin capture of biotinylated PCR products with concomitant probe hybridization, addition of substrate, and reading optical densities of the colorimetric reaction. Dilutions of a standardized HBV-containing supernatant were included on every plate, and HBV DNA concentrations of test wells were calculated from this HBV standard curve. The useful range of detection is at least .045 to 45 fg of HBV DNA, where 30 copies of the genome can be reliably detected. […]

[3] = system: WT HBV; test: PMEA inhibition of HBV DNA production, HepG2 cells transiently transfected with HBV genome plasmid; type: cell-based; conditions: Hepatitis B virus, 168 h, WT construct, day 7, read-out: IC50 PMEA (95%Cl)
Method: as §1

[4] = in vitro; type: cell-based; conditions: human; HepG2 cells; read-out: cytotoxic IC50
Method: The IC50 for PMEA was determined against wild type (WT) and lamivudine resistant HBV transiently expressed in a cell culture system as described below. HepG2 cells were transiently transfected with plasmid containing the HBV genome that had the wild type sequence or contained the following lamivudine resistant mutations in the reverse transcriptase gene; M552I, M552V, L528M, L528MM552V. […] HepG2 cells were seeded into 96-well Costar plates at 6300 cells per well in 150 µl of HepG2 media (Dulbecco's Modified Eagle Medium (DMEM), containing 10% fetal bovine serum) and were incubated overnight at 37°C. For each transfected well, 75 ng of plasmid DNA and 0.5 µl of lipofectamine (Gibco) were incubated together for 30 minutes at room temperature in 12.5 µl of OptiMem (Gibco) prior to addition of DNA/lipofectamine mixture to cells. Each well was rinsed with 150 µl of unsupplemented DMEM. […] HBV DNA levels were quantitated from media harvested from cells on day 7 using the methods described in Jansen RW, Johnson LC, Averett, DR. […] Cytotoxicity due to drug treatment was determined using the DNA stain Bisbenzimide (H33342 3HCl 4H2O; Calbiochem Company, La Jolla CA). […] Fluorescent values per well were determined with a Millipore Cytofluor 2350 fluorescent plate reader (excitation, 355 nm; emission, 460 nm; arbitrary units). […]

[5] = system: HBV M552V; test: PMEA inhibition of HBV DNA production, HepG2 cells transiently transfected with HBV genome plasmid; type: cell-based, hepatitis B virus
Method: (§2) The human hepatobtastoma cell line (Hep-G2-2.2.15) which constitutively produces infectious HBV was seeded into 96 well microtiter plates at a density of 5 x 10^3 cells per well. These cells were treated with a combination of lamivudine and PMEA on triplicate plates. Culture media containing drugs was replenished every other day for 9 days, at which time supernatants were collected and analyzed for HBV content. The lamivudine/PMEA combination was tested twice in triplicate in matrix fashion. Experiment 1 utilised a lamivudine range of 100 nM to 0.14 nM (3-fold dilutions in columns), and PMEA, 9-[(R)-2-(phosphonomethoxy)ethyl]adenine (adefovir), at concentrations of 1 µM to 10 nM (3.16 fold dilutions in rows). Experiment 2 was performed with dilutions of Lamivudine ranging from 100nM to .045 nM (in 3-fold dilutions in columns), and a PMEA range of 5 µM to 0.16 nM (3.16 fold dilutions in rows). Both drugs were diluted in a separate 96 well microtiter plate, and subsequently transferred onto plates containing the cell monolayers. Cells are grown in 150 µl RPMI 1640 supplemented with 2 mM L-Glutamine and 10% fetal bovine serum. Prior to transfer of drug, 120 µl of media was removed from the cells, leaving 30 µl on the monolayers to prevent drying. 90 µl of fresh media without drug was added, followed by the addition of 30 µl of 5X drug dilutions. Lamivudine and PMEA were each tested on their respective plates individually at the same concentrations. Data were normalised to values obtained with non-drug treated cells, and expressed as a percent of control for analysis. The method used for detection of HBV has been previously described (Jansen RW, Johnson LC, Averett, DR. High-Capacity in vitro assessment of anti-hepatitis B virus compound selectivity by a virion-specific polymerase chain reaction assay. Antimicrob Agents Chem 1993; 37 (3): 441-447.). Briefly, HBV detection was performed by "capturing" virus from supernatants on Anti-HBsAg coated plates, washing, denaturing to release HBV DNA, performing PCR with biotinylated primers, streptavidin capture of biotinylated PCR products with concomitant probe hybridization, addition of substrate, and reading optical densities of the colorimetric reaction. Dilutions of a standardized HBV-containing supernatant were included on every plate, and HBV DNA concentrations of test wells were calculated from this HBV standard curve. The useful range of detection is at least .045 to 45 fg of HBV DNA, where 30 copies of the genome can be reliably detected. Samples were tested in conjunction with both positive (.448 fg/ul plasmid DNA) and negative (RPMI medium supplemented with 2 mM L-Glutamine and 10% Fetal calf serum) controls. The average IC50 and standard error of the IC50s for the triplicate plates were calculated using SAS nonlinear regression to fit data to the Hill equation for each concentration response curve. When only a single determination of an IC50 for a particular dose combination could be made, the average of the standard errors from adjacent concentrations was used to estimate the standard error. Fractional inhibitory concentrations (FIC50) were calculated for each combination and plotted using the isobologram representation (Berenbaum, M.C. (1985) The Expected Effect ofa Combination of Agents: the General Solution. J. Theor. Biol. 114, 413-431). To assess statistical significance of synergy or antagonism, an unpaired t-test was used to compare each sum of paired FIC50 values with the theoretical value of 1. P values less than 0.05 were considered statistically significant. Comparison of P values between experiments must be interpreted with great care, as the experiments utilized different test concentration ranges (or ranges useable by the isobologram method). In some cases not all concentrations tested could support calculation of an IC50, since response was inhibited to a greater extent than 50 percent of control for all doses. […]

[6] = system: HBV L528M; test: as above; type: cell-based, hepatitis B virus
Method: as §2

[7] = system: HBV M552I; test: as above; type: cell-based, hepatitis B virus
Method: as §2

[8] = system: HBV L528M/ M552V; test: as above; type: cell-based, hepatitis B virus
Method: as §2

[9] = system: Human hepatitis B DNA polymerase which expresses lamivudine codons; conditions: Xiong et al. 1997, Abstract No. 1211; cited from earlier work
[10] = system: WT HBV produced by the 2.2.15 cells; conditions: Heijtink et al. 1993, read-out: IC50 of PMEA, literature value using the same cell line; cited from earlier work

Row | SMILES | patients maintaining undetectable levels of virus [1] [%] | IC50 [2] [nM] | IC50 [3] [nM] | IC50 [4] [nM] | IC50 ([5]; Hepatitis B virus, 168 h, M552V construct, transfected HepG2 cells, day 7, read-out: IC50 PMEA (95%Cl)) [nM] | x-fold change in IC50 ([5]; M552V versus WT HBV) | IC50 ([6]; Hepatitis B virus, 168 h, L528M construct, transfected HepG2 cells, day 7, read-out: IC50 PMEA (95%Cl)) [nM] | x-fold change in IC50 ([6]; L528M versus WT HBV) | IC50 ([7]; Hepatitis B virus, 168 h, M552I construct, transfected HepG2 cells, day 7, read-out: IC50 PMEA (95%Cl)) [nM] | x-fold change in IC50 ([7]; M552I versus WT HBV) | IC50 ([8]; Hepatitis B virus, 168 h, L528M/ M552V construct, transfected HepG2 cells, day 7, read-out: IC50 PMEA (95%Cl)) [nM] | x-fold change in IC50 ([8]; L528M/ M552V versus WT HBV) | cross-resistance to PMEA [9] | IC50 [10] [nM]
1 | Nc1ccn([C@@H]2CS[C@H](CO)O2)c(=O)n1 (relative stereo) [lamivudine, (2R,cis)-4-amino-1-(2-hydroxymethyl-1,3-oxathiolan-5-yl)-pyrimidin-2-one] | 52 | – | – | – | – | – | – | – | – | – | – | – | – | –
2 | Nc1ncnc2c1ncn2CCOCP(=O)(O)O [PMEA, 9-[(R)-2-(phosphonomethoxy)ethyl]adenine] | – | 430 | 530 | 25000 to 40000 | 9800 | 18 | 870 | 1.6 | 7500 | 14 | 1300 | 2.5 | lack of cross-resistance | 700

From patent publication EP1113802B1, “ANTIVIRAL COMBINATIONS OF […] ADEFOVIR” (priority 1998, dated 2000)
